Source: US20080131366A1, “Folate Receptor Gene Modulation For Cancer Diagnosis And Therapy” (priority 2003, published 2008)

Experiments:
Assay type in all cases: cell-based
FR-α promoter [1] = experiment: FR-α promoter-luciferase reporter in BG-1 cells (endogenous ER); conditions: BG-1, endogenous ER
Description: (§1) (FIG. 1A) HeLa and IGROV-1 cells (10^6) were co-transfected with the FR-α promoter-luciferase construct (400 ng) and either an ER expression plasmid (25 ng) or with the plasmid vector alone (25 ng) in the presence of 1 nM E2. Antiestrogens were introduced at the time of transfection. […] (FIG. 1B) The FR-α promoter-luciferase construct (400 ng) was transfected into BG-1 cells (10^6) in the absence or in the presence of E2 (1 nM) and antiestrogens were introduced at the time of transfection. (FIG. 1C) HeLa cells (10^6) were transfected with the thymidine kinase (TK)-promoter-luciferase (200 ng) or Rous Sarcoma Virus (RSV)-promoter-luciferase (200 ng) constructs and were co-transfected with either ER plasmid (25 ng) or with the plasmid vector (25 ng). Antiestrogens were introduced at the time of transfection.
(§2) Cell Culture and Transfection: HeLa I-1 cells were kindly provided by Dr. S. T. Rosen. BG-1 cells were provided by Dr. Randolf Ruch. […] Uniformity of transfection was routinely monitored through cotransfections with the β-galactosidase expression plasmid, pSV-β-gal (Promega). β-galactosidase activity was measured colorimetrically using the assay system available from Promega. […]

FR-α = experiment: Induction of endogenous FR-α in ER+/FRα-negative cells; conditions: ER+/FRα-negative cells including BG-1; results not shown
From the text: It appears that ER will only modulate the endogenous FR-α gene in cells in which the gene is transcriptionally active.

FR-α promoter [2] = experiment: FR-α promoter-luciferase in HeLa cells transfected with ERβ
Description: FIG. 8 is graph showing an effect of ERα vs. […] on FR-α promoter activity. HeLa cells (10^6) were transfected with the FR-α promoter-luciferase construct (200 ng) and co-transfected individually or in combination with expression plasmids (25 ng) for ERα, […] or with the plasmid vector. The cells were treated from the time of transfection with E2 (1 nm) and either without or with ICI 182, 780.
Effect of ERβ on FR-α Promoter activity: Since ER+ gynecological tumors are known to frequently co-express ERα and ERβ, the inventor herein tested whether ERβ may modulate FR-α similar to ERα or may otherwise counteract the effect of ERα.

FR-α promoter [3] = experiment: FR-α promoter-luciferase reporter in IGROV-1 cells co-transfected with ER; conditions: IGROV-1, ER co-transfected, 1 nM E2, pharmacologic concentrations of antiestrogen
Description: as §1, §2

FR-α/SV40 (GC)6 promoter = experiment: FR-α/SV40 (GC)6 chimeric promoter-luciferase in HeLa cells with ER; conditions: in the presence of ER
Description: FIG. 6C is a graph showing HeLa cells (10^6) which were transfected with FR-α promoter-luciferase (FR-α-Luc) (400 ng) [Seq. ID No. 6], FR-1-Luc in which the G/C-rich region (−47 nt to −18 nt) [Seq. ID No. 7] of the P4 promoter was replaced by the G/C-rich region in the SV40 early promoter (FR-α/SV40 (GC)6) (400 ng), or with FR-α-Luc[Seq. ID No. 6] in which the initiator region (−28 nt to +33 nt) [Seq. ID No. 8] was replaced by the TATA box-containing initiator region of the SV40 early promoter (FR-α/SV40-lnr) (400 ng). ER expression plasmid (25 ng) or the plasmid vector (25 ng) was co-transfected as indicated. The transfected cells were grown in the presence of E2 (1 nM) and either in the absence or in the presence of ICI 182, 780 for 48 h before harvesting them for luciferase assays.
DNA Constructs: Construct design used either natural restriction sites or restriction sites created by the polymerase chain reaction (PCR) using Vent DNA polymerase (New England Biolabs) and custom oligonucleotides from Gibco BRL. In cases where a natural restriction site could not be found for use, complementary primers containing an appropriate restriction site or point mutation were used in conjunction with upstream and downstream primers containing restriction sites. Alternatively, mutagenic oligonucleotides were used as end primers to amplify the desired fragment. […]

FR-α promoter [4] = experiment: FR-α promoter-luciferase reporter in HeLa cells co-transfected with ER
Description: as §1
FIGS. 2A and 2B are graphs showing an estrogen and antiestrogen dose response of a control ERE-driven promoter and the FR-α promoter in HeLa cells. The Y-axis in FIG. 2A indicates promoter activation, whereas the Y-axis in FIG. 2B indicates promoter repression. The cells (10^6) were transfected with either ERE2E1b-luciferase (100 ng) (FIG. 2A) or FR-α promoter-luciferase (100 ng) (FIG. 2B) and co-transfected with the ER expression plasmid (50 ng) where indicated. Cells that were not co-transfected with the ER-plasmid were co-transfected instead with the plasmid vector alone (50 ng).
FIGS. 3A and 3B are graphs showing a time course of response of the control ERE2E1b-luciferase (FIG. 3A) and FR-α promoter luciferase (FIG. 3B) to antiestrogens in HeLa cells. The cells (10^6) were transfected with the indicated promoter-luciferase construct (100 ng) and co-transfected with ER expression plasmid (50 ng) in the presence of E2 (1 nM).
In one set of experiments, the antiestrogens were removed after a 6 h treatment.
Cell Culture and Transfection: HeLa I-1 cells were kindly provided by Dr. S. T. Rosen. BG-1 cells were provided by Dr. Randolf Ruch. HeLa (American Type Tissue Collection) and HeLa I-1 cells were routinely cultured in phenol red-free MEM supplemented with fetal bovine serum (FBS) (10%), penicillin (100 units/mL), streptomycin ([…]), and L-glutamine (2 mM). BG-1 and IGROV1 (American Type Tissue Collection) cells were routinely cultured in DMEM and supplemented as above. Treated or transfected cells were grown in phenol-red free media supplemented with charcoal-stripped FBS (5% v/v), penicillin (100 units/mL), streptomycin ([…]), L-glutamine (2 mM), insulin (2 μg/mL), and transferrin (40 μg/mL) unless otherwise noted. In addition, treated HeLa I-1 cells were grown in culture with 50 μg/mL G418. […] Uniformity of transfection was routinely monitored through cotransfections with the β-galactosidase expression plasmid, pSV-β-gal (Promega). β-galactosidase activity was measured colorimetrically using the assay system available from Promega.
Luciferase Assay: Forty-eight hours after transfection, the cells were washed once with PBS (10 mM sodium phosphate, pH 7.5, 150 mM NaCl) and harvested in 400 μL of reporter lysis buffer provided with the luciferase assay system (Promega). The samples were centrifuged at 12,000 g for 2 min at room temperature. The supernatant was assayed for luciferase activity in a luminometer (Lumat LB9501, Berthold) using the luciferase substrate from Promega.

C[C@]12CC[C@@H]3c4ccc(O)cc4C[C@@H](CCCCCCCCC[S+]([O-])CCCC(F)(F)C(F)(F)F)[C@H]3[C@@H]1CC[C@@H]2O (stereo partly drawn) [ICI 182,780]
FR-α promoter activity (FR-α promoter [1]): increased the promoter activity
induction of endogenous FR-α expression (FR-α): In no case did the inventor observe induction
repression of the FR-α promoter by ERβ (FR-α promoter [2]): reversed
FR-α promoter activity after repression by ER (FR-α promoter [3]): either partially or completely restored to the uninhibited values
chimeric promoter activity (FR-α/SV40 (GC)6 promoter): this activation was counteracted
duration of derepression after withdrawing the compound (FR-α promoter [4]; 6 h treatment): at least 18 h
derepression of FR-α promoter after 6 h treatment and withdrawal (FR-α promoter [4]; 6 h treatment, then compound withdrawn): full derepression
effect on FR-α promoter (ligand dose response) (FR-α promoter [4]; HeLa, ER co-transfected): the repression was counteracted
FR-α promoter activity after repression by ER (FR-α promoter [4]; HeLa, ER co-transfected, 1 nM E2, pharmacologic concentrations of antiestrogen): either partially or completely restored to the uninhibited values
reporter activity at the end of 48 h post-transfection (FR-α promoter [4]; antiestrogen introduced 24 h after co-transfection): a doubling of the reporter activity
onset of activation of FR-α promoter (FR-α promoter [4]; antiestrogen introduced 24 h after transfection): began within hours and progressively increased
FR-α promoter activity in the absence of ER (FR-α promoter [4]; no ER co-transfected, HeLa and IGROV-1, results not shown): did not alter FR-α promoter activity
